The numbers were not newly measured in patent publication EP0699249B1, “METHODS FOR TREATING NON-COTTON-CONTAINING FABRICS WITH CELLULASE” (GENENCOR INTERNATIONAL, INC., priority 1994, dated 1995), which cites them from elsewhere.

The Ki is the equilibrium dissociation constant of an inhibitor or competing ligand from its target.

The series deals with CBH I and CBH II from Trichoderma longibrachiatum. To be noted: competitive inhibition of CBH components.

Turning to `O=C[C@H](O)[C@@H](O)[C@H](O[C@@H]1O[C@H](CO)[C@@H](O)[C@H](O)[C@H]1O)[C@H](O)CO` [cellobiose], the Ki is roughly 1000 µM.
